Experimental data reported in patent US6987114B1, “Antiviral pyrimidinedione derivatives and process for the preparation thereof” (Samjin Pharmaceutical Co., Ltd, priority 1999, dated 2006).
≈ marks a conversion by molar mass, not a printed value. Like-named read-outs stand apart in the source and are kept apart here.

Assays:
HIV = experiment: microbe, parasite or virus in culture; type: cell-based
Protocol: Anti-HIV activity tests in vitro of the compounds according to the present invention were performed as described in J. Med. Chem, 34, 357, 1991. Inhibition by the compounds of virus-induced cytotoxic effect in MT-4 cells was measured as follows.
(§1) MT-4 cells were suspended in culture media at 2.5×10^5 cells/ml and infected with 1000 CCID50 (50% cell culture infective dose) of HIV. Immediately after virus infection, 100 μl of cell suspension was brought into each well of a flat-bottomed microtitray containing various concentrations of the test compounds. After 4 or 5 days incubation at 37° C., efficacy of the compounds was determined by the MTT method. Cytotoxicity of the compounds was assessed in parallel with their antiviral activity, based on viability of mock-infected host cells as determined by the MTT method.

mock-infected MT-4 cells = experiment: Cytotoxicity based on viability of mock-infected host cells (MTT method); type: cell-based; conditions: mock-infected MT-4 cells, MTT method, 4 or 5 days at 37° C.
Protocol: as §1

[1] = Human immunodeficiency virus 1, MT4, read-out: ED50
[2] = Human immunodeficiency virus 1, MT4, HIV-infected MT-4 cells, MTT method, 4 or 5 days at 37° C., read-out: ED50 (the source's name)

SMILES	EC50 (HIV; [2])	EC50 (HIV; [1])	CD50 (mock-infected MT-4 cells)	melting point
CCc1c(Oc2cc(C)cc(C)c2)n(Cc2nc3ccccc3o2)c(=O)[nH]c1=O [Example 147, 1-(Benzoxazol-2-ylmethyl)-5-ethyl-6-(3,5-dimethylphenoxy)-2,4-pyrimidinedione]	–	0.061 µg/mL (≈ 0.156 µM)	40.20 µg/mL	121 to 123 °C
Cc1cc(C)cc(Sc2c(C(C)C)c(=O)[nH]c(=O)n2Cc2c3ccccc3cc3ccccc23)c1 [Example 98, 1-(Anthracen-9-ylmethyl)-5-isopropyl-6-(3,5-dimethylphenyl)thio-2,4-pyrimidinedione]	–	> 1.75 µg/mL	1.75 µg/mL	129 to 131 °C
CCc1c(Oc2cc(C)cc(C)c2)n(Cc2cc(C)cc(C)c2)c(=O)[nH]c1=O [Example 51, 1-(3,5-Dimethylbenzyl)-5-ethyl-6-(3,5-dimethylphenoxy)-2,4-pyrimidinedione]	–	0.13 µg/mL (≈ 0.343 µM)	8.01 µg/mL	130 to 132 °C
CCc1c(C(=O)c2cc(C)cc(C)c2)n(CC2CCCCC2)c(=O)[nH]c1=O [Example 17, 1-(Cyclohexyl)methyl-5-ethyl-6-(3,5-dimethylbenzoyl)-2,4-pyrimidinedione]	–	0.013 µg/mL (≈ 0.0353 µM)	7.10 µg/mL	177 to 179 °C
CCc1c(Sc2cc(C)cc(C)c2)n(Cc2nc3ccccc3o2)c(=O)[nH]c1=O [Example 145, 1-(Benzoxazol-2-ylmethyl)-5-ethyl-6-(3,5-dimethylphenyl)thio-2,4-pyrimidinedione]	–	3.04 µg/mL (≈ 7.46 µM)	>100.00 µg/mL	104 to 106 °C
CCc1c(Oc2cc(C)cc(C)c2)n(Cc2cc(Cl)cc(Cl)c2)c(=O)[nH]c1=O [Example 81, 1-(3,5-Dichlorobenzyl)-5-ethyl-6-(3,5-dimethylphenoxy)-2,4-pyrimidinedione]	–	1.16 µg/mL (≈ 2.77 µM)	>100.00 µg/mL	194 to 196 °C

Further lines, with some results ahead:

EC50 (HIV; [2])	SMILES	EC50 (HIV; [1])	CD50 (mock-infected MT-4 cells)	melting point
0.52 µg/mL (≈ 1.08 µM)	CCc1c(Oc2cc(C)cc(C)c2)n(Cc2ccc3c(c2)C(=O)c2ccccc2C3=O)c(=O)[nH]c1=O [Example 105, 1-(Anthraquinon-2-ylmethyl)-5-ethyl-6-(3,5-dimethylphenoxy)-2,4-pyrimidinedione]	–	5.30 µg/mL	233 to 235 °C
0.005 µg/mL (≈ 0.0109 µM)	Cc1cc(C)cc(C(=O)c2c(C(C)C)c(=O)[nH]c(=O)n2Cc2ccc(OC(F)(F)F)cc2)c1 [Example 36, 1-(4-Trifluoromethoxybenzyl)-5-isopropyl-6-(3,5-dimethyl-benzoyl)-2,4-pyrimidinedione]	–	7.88 µg/mL	79 to 81 °C
> 9.58 µg/mL	Cc1cc(C)cc(Sc2c(C(C)C)c(=O)[nH]c(=O)n2Cc2ccc3ccccc3n2)c1 [Example 132, 1-(Quinolin-2-ylmethyl)-5-isopropyl-6-(3,5-dimethylphenyl)thio-2,4-pyrimidinedione]	–	9.60 µg/mL	181 to 183 °C
0.017 µg/mL (≈ 0.0377 µM)	CCc1c(Sc2cc(C)cc(C)c2)n(Cc2ccc(OC(F)(F)F)cc2)c(=O)[nH]c1=O [Example 31, 1-(4-Trifluoromethoxybenzyl)-5-ethyl-6-(3,5-dimethylphenyl)thio-2,4-pyrimidinedione]	–	4.86 µg/mL	138 to 140 °C
0.122 µg/mL (≈ 0.316 µM)	CCc1c(Oc2cc(C)cc(C)c2)n(Cc2cccc(Cl)n2)c(=O)[nH]c1=O [Example 123, 1-(2-Chloropyridin-6-ylmethyl)-5-ethyl-6-(3,5-dimethylphenoxy)-2,4-pyrimidinedione]	–	79.14 µg/mL	199 to 201 °C
0.015 µg/mL (≈ 0.0408 µM)	CCc1c(Sc2cc(C)cc(C)c2)n(Cc2ccccn2)c(=O)[nH]c1=O [Example 109, 1-(Pyridin-2-ylmethyl)-5-ethyl-6-(3,5-dimethylphenyl)thio-2,4-pyrimidinedione]	–	29.72 µg/mL	217 to 219 °C
